Data as given in paper PMC10748408 (Frontiers in Oncology, 2023).

Legend:
[1] = system: normal mice; assay: Serum biochemical parameters (ALT, AST, creatinine, urea) of normal mice treated with ART; type: in vivo, BALB/c mice
Procedure: Levels of alanine aminotransferase (ALT) and aspartate aminotransferase (AST) from the serum were determined using ALT and AST estimation kits (Robonik India Pvt. Ltd, India). Briefly, for ALT activity estimation, Reagent 1 (Tris Buffer, L-Alanine, Lactate Dehydrogenase) and Reagent 2 (α-ketoglutarate, NADH) was mixed (4:1) with 100 µl serum. After 60 seconds incubation, absorbance was measured at 340 nm every minute for 180 seconds (ΔA/minute). Finally, the activity was estimated using the formula: Activity of the sample = (ΔA/minute x 1746). Analysis and final calculations were carried out according to the manufacturer’s protocol ([29]) For AST activity estimation, Reagent 1 (Tris Buffer, L-Aspartate, Lactate Dehydrogenase; >600U/L, Malate dehydrogenase; >600U/L) and Reagent 2 (α-ketoglutarate, NADH) was mixed together (4:1) with 100 µl serum. After incubation for 60 seconds, absorbance was measured at 340 nm per minute for 180 seconds (ΔA/minute). Finally, the activity was estimated using the formula: Activity of the sample = (ΔA/minute x 1746). Analysis and final calculations were carried out according to the manufacturer’s protocol ([30]). For estimation of creatinine level, picric acid (0.5 ml), buffer (0.5 ml) and sample (Test)/standard (S) (0.1 ml) were mixed and absorbance was measured at 520 nm for 30 seconds and 60 seconds. The rate of change of absorbance was determined for the standard (ΔS) and test (ΔT) samples. The levels were estimated using the formula: creatinine (mg/dl) = (ΔT)/(ΔS) x 2.0 ([31]). Urea levels were estimated using specific metabolite analysis kits. Buffer (1 ml), enzyme (0.1 ml), sample (test)/standard (0.1 ml) and chromogen reagent (0.2 ml) were mixed. Absorbance was measured at 570 nm after 5 minutes of incubation of test (Abs T) and standard (Abs S) samples. The levels were estimated using the formula: Urea (mg/dl) = (AbsT)/(AbsS) x 40. Analysis and calculations were carried out according to the manufacturer’s protocol ([32]). […]

[2] = system: tumor-bearing mice; assay: Serum biochemical parameters (ALT, AST, creatinine, urea) of tumor-bearing mice treated with ART; type: in vivo, BALB/c mice; conditions: 7 days
Procedure: Mouse mammary 4T1 cells in passage numbers between 7 and 12 (10^4 cells/ml in 50 µl PBS) were injected into the inguinal 4th mammary fat pad of BALB/c mice ([23], [24]). Normal mice received an equal volume of sterile PBS. A palpable tumor was allowed to develop for 14 days ([24]). […] Normal (mammary fat pad surrounding the 4th inguinal mammary pad), mammary tumor, and organs like lungs, kidney, liver, and blood were collected at the end of the experimental schedule. Body weight and tumor volume of each mouse were recorded daily during the tenure of the experiment. Tumor volume was calculated using the following formula: length (mm) × width^2 (mm) × 0.52 ([25]). Levels of alanine aminotransferase (ALT) and aspartate aminotransferase (AST) from the serum were determined using ALT and AST estimation kits (Robonik India Pvt. Ltd, India). Briefly, for ALT activity estimation, Reagent 1 (Tris Buffer, L-Alanine, Lactate Dehydrogenase) and Reagent 2 (α-ketoglutarate, NADH) was mixed (4:1) with 100 µl serum. After 60 seconds incubation, absorbance was measured at 340 nm every minute for 180 seconds (ΔA/minute). Finally, the activity was estimated using the formula: Activity of the sample = (ΔA/minute x 1746). Analysis and final calculations were carried out according to the manufacturer’s protocol ([29]) For AST activity estimation, Reagent 1 (Tris Buffer, L-Aspartate, Lactate Dehydrogenase; >600U/L, Malate dehydrogenase; >600U/L) and Reagent 2 (α-ketoglutarate, NADH) was mixed together (4:1) with 100 µl serum. After incubation for 60 seconds, absorbance was measured at 340 nm per minute for 180 seconds (ΔA/minute). Finally, the activity was estimated using the formula: Activity of the sample = (ΔA/minute x 1746). Analysis and final calculations were carried out according to the manufacturer’s protocol ([30]). For estimation of creatinine level, picric acid (0.5 ml), buffer (0.5 ml) and sample (Test)/standard (S) (0.1 ml) were mixed and absorbance was measured at 520 nm for 30 seconds and 60 seconds. The rate of change of absorbance was determined for the standard (ΔS) and test (ΔT) samples. The levels were estimated using the formula: creatinine (mg/dl) = (ΔT)/(ΔS) x 2.0 ([31]). Urea levels were estimated using specific metabolite analysis kits. Buffer (1 ml), enzyme (0.1 ml), sample (test)/standard (0.1 ml) and chromogen reagent (0.2 ml) were mixed. Absorbance was measured at 570 nm after 5 minutes of incubation of test (Abs T) and standard (Abs S) samples. The levels were estimated using the formula: Urea (mg/dl) = (AbsT)/(AbsS) x 40. Analysis and calculations were carried out according to the manufacturer’s protocol ([32]).

[3] = ART 6.25 mg/kg body wt, 3 weeks (21 days)
[4] = ART 12.5 mg/kg body wt, 3 weeks (21 days)
[5] = ART 25 mg/kg body wt, 3 weeks (21 days)
[6] = ART 50 mg/kg body wt, 3 weeks (21 days)

C[C@@H]1CC[C@H]2[C@@H](C)C(=O)O[C@@H]3O[C@@]4(C)CC[C@@H]1[C@]32OO4 [ART, Artemisinin] showed an ALT [1, 3] of 28.1±2.6 U/l, an AST [1, 3] of 29.8±4.6 U/l and a Creatinine [1, 3] of 0.48 ± 0.21 mg/dL. The Urea [1, 3] was 31.6 ± 1.9 mg/dL, the ALT ([1]; ART 6.25 mg/kg body wt, 7 days) was 23.7 ± 1.8 U/l and the AST ([1]; ART 6.25 mg/kg body wt, 7 days) was 27.3 ± 0.8 U/l. For the same molecule, the Creatinine ([1]; ART 6.25 mg/kg body wt, 7 days) was 0.51 ± 0.09 mg/dL, the Urea ([1]; ART 6.25 mg/kg body wt, 7 days) was 24.5 ± 1.2 mg/dL and the ALT [1, 4] was 29.3±3.1 U/l. It also gave an AST [1, 4] of 31.4±2.6 U/l, a Creatinine [1, 4] of 0.68 ± 0.12 mg/dL and a Urea [1, 4] of 28.7 ± 2.3 mg/dL. It also gave an ALT ([1]; ART 12.5 mg/kg body wt, 7 days) of 26.6 ± 2.2 U/l, an AST ([1]; ART 12.5 mg/kg body wt, 7 days) of 29.6 ± 1.3 U/l and a Creatinine ([1]; ART 12.5 mg/kg body wt, 7 days) of 0.77 ± 0.13 mg/dL. It also gave a Urea ([1]; ART 12.5 mg/kg body wt, 7 days) of 26.3 ± 1.6 mg/dL, an ALT [1, 5] of 29.5±2.1 U/l and an AST [1, 5] of 28.5±2.8 U/l. It also gave a Creatinine [1, 5] of 0.49 ± 0.3 mg/dL, a Urea [1, 5] of 30.1 ± 2.6 mg/dL and an ALT ([1]; ART 25 mg/kg body wt, 7 days) of 30.7 ± 1.5 U/l. For the same molecule, the AST ([1]; ART 25 mg/kg body wt, 7 days) was 31.7 ± 3.1 U/l, the Creatinine ([1]; ART 25 mg/kg body wt, 7 days) was 0.62 ± 0.07 mg/dL and the Urea ([1]; ART 25 mg/kg body wt, 7 days) was 28.2 ± 0.8 mg/dL. It also gave an ALT [1, 6] of 28.8±3.2 U/l, an AST [1, 6] of 30.3±1.9 U/l and a Creatinine [1, 6] of 0.62 ± 0.38 mg/dL. For the same molecule, the Urea [1, 6] was 28.9 ± 2.1 mg/dL, the ALT ([1]; ART 50 mg/kg body wt, 7 days) was 26.4 ± 2.3 U/l and the AST ([1]; ART 50 mg/kg body wt, 7 days) was 29.3 ± 2.6 U/l. It also gave a Creatinine ([1]; ART 50 mg/kg body wt, 7 days) of 0.71 ± 0.1 mg/dL, a Urea ([1]; ART 50 mg/kg body wt, 7 days) of 27.1 ± 1.3 mg/dL and an ALT ([2]; ART 6.25 mg/kg body wt i.p.) of 43.8 ± 1.8 U/l. For the same molecule, the AST ([2]; ART 6.25 mg/kg body wt i.p.) was 38.6 ± 2.6 U/l, the Creatinine ([2]; ART 6.25 mg/kg body wt i.p.) was 1.21 ± 0.21 mg/dL and the Urea ([2]; ART 6.25 mg/kg body wt i.p.) was 44.5 ± 1.8 mg/dL. The ALT ([2]; ART 12.5 mg/kg body wt i.p.) was 41.3 ± 3.1 U/l, the AST ([2]; ART 12.5 mg/kg body wt i.p.) was 38.2 ± 2.4 U/l and the Creatinine ([2]; ART 12.5 mg/kg body wt i.p.) was 0.85 ± 0.18 mg/dL. It also gave a Urea ([2]; ART 12.5 mg/kg body wt i.p.) of 32.3 ± 0.5 mg/dL, an ALT ([2]; ART 25 mg/kg body wt i.p.) of 38.9 ± 2.9 U/l and an AST ([2]; ART 25 mg/kg body wt i.p.) of 33.2 ± 2.8 U/l. It also gave a Creatinine ([2]; ART 25 mg/kg body wt i.p.) of 0.71 ± 0.16 mg/dL, a Urea ([2]; ART 25 mg/kg body wt i.p.) of 32.2 ± 1.1 mg/dL and an ALT ([2]; ART 50 mg/kg body wt i.p.) of 36.6 ± 1.6 U/l. For the same molecule, the AST ([2]; ART 50 mg/kg body wt i.p.) was 31.8 ± 2.9 U/l, the Creatinine ([2]; ART 50 mg/kg body wt i.p.) was 0.68 ± 0.11 mg/dL and the Urea ([2]; ART 50 mg/kg body wt i.p.) was 27.1 ± 1.4 mg/dL.
